# “And” between values parts separate entries of the source, which are not always exact repeats. Identical values can stand only once.
# Experiment: Batch release QC / patient dose batch data
# Assay type: physicochemical
# Details: patient dose batches
# Protocol: In another embodiment, the radioactivity is measured in a dose calibrator. The radioactive amount of [^177Lu]Lu-PSMA I&T is determined when the dose is dispensed.
# In one embodiment, bacterial endotoxin content is determined for each batch before release using a PTS-tester (Ph Eur method D) and sterility is determined according to Ph Eur.
# The specifications listed were used as release parameters except for sterility testing. Sterility was tested on all batches post-release.
smiles,measurement,value
O=C([O-])CC[C@H](NC(=O)N[C@@H](CCCCNC(=O)CCCCCCC(=O)NCCCC[C@@H](NC(=O)[C@@H](Cc1ccccc1)NC(=O)[C@@H](Cc1ccc(O)c(I)c1)NC(=O)CC[C@H](C(=O)[O-])N1CCN(CC(=O)[O-])CCN(CC(=O)[O-])CCN(CC(=O)[O-])CC1)C(=O)[O-])C(=O)[O-])C(=O)[O-].[177Lu+3].[H+].[H+].[H+].[H+].[H+] [Lu-177 PSMA I&T],Measured PSMA Sum,5.0 µg/mL
same,Theoretical PSMA Sum,5.9 µg/mL and 6.4 µg/mL

# Reference: patent publication US20250032651A1, “[177LU] LUTETIUM-PSMA I&T COMPOSITION AND DOSIMETRY, KIT, METHOD OF MAKING, AND METHOD OF USING THEREOF” (Curium US LLC, priority 2022, published 2025)
